Test results published in the CheMixHub viscosity set.

Assay: xn = mol fraction of the nth substance listed

CCC(=O)CC + CCOC(=O)OCC
viscosity [mPa·s], 101 kPa
Settings	x2 = 0.0893	x2 = 0.1498	x2 = 0.2601	x2 = 0.3555	x2 = 0.4667	x2 = 0.5689	x2 = 0.6701	x2 = 0.7565	x2 = 0.8858	x2 = 0.9501
303.15 K	0.452	0.468	0.496	0.521	0.55	0.578	0.606	0.631	0.668	0.686
308.15 K	0.417	0.431	0.457	0.481	0.509	0.535	0.563	0.586	0.622	0.641
313.15 K	0.405	0.417	0.439	0.459	0.484	0.508	0.532	0.554	0.589	0.607

NCCO + CN1CCCC1=O
viscosity [mPa·s], 101 kPa
Settings	293.15 K	298.15 K	303.15 K	308.15 K	313.15 K	318.15 K	323.15 K
x1 = 0.1558	2.99	2.712	2.484	2.293	2.133	1.996	–
x1 = 0.3001	3.547	3.176	2.869	2.612	2.397	2.218	2.065
x1 = 0.4204	4.72	4.121	3.633	3.236	2.909	2.638	2.415
x2 = 0.2076	–	–	10.07	–	6.755	–	5.018
x2 = 0.4003	–	–	6.647	–	4.811	–	3.622
x2 = 0.5994	–	–	4.361	–	3.317	–	2.559
x2 = 0.7992	–	–	2.604	–	2.118	–	1.799

CN1CCCC1=O + CN(C)C=O
viscosity [mPa·s], 101 kPa
Settings	x2 = 0.1003	x2 = 0.2001	x2 = 0.2997	x2 = 0.4	x2 = 0.5007	x2 = 0.595	x2 = 0.7	x2 = 0.8	x2 = 0.9003
303.15 K	1.417	1.328	1.249	1.17	1.085	1.018	0.943	0.872	0.809
313.15 K	1.231	1.152	1.085	1.02	0.948	0.891	0.832	0.775	0.721
323.15 K	1.097	1.024	0.967	0.908	0.846	0.794	0.742	0.692	0.646

CCC(=O)CC + CN(C)c1ccccc1
viscosity [mPa·s], 101 kPa
Settings	303.15 K	308.15 K
x2 = 0.0612	0.548	0.499
x2 = 0.1145	0.645	0.588
x2 = 0.1652	0.732	0.668
x2 = 0.2302	0.832	0.764
x2 = 0.3025	0.928	0.859
x2 = 0.3741	1.006	0.935
x2 = 0.4256	1.053	0.98
x2 = 0.5023	1.105	1.029
x2 = 0.5714	1.137	1.056
x2 = 0.6325	1.155	1.069
x2 = 0.7045	1.165	1.074
x2 = 0.7812	1.167	1.073
x2 = 0.8512	1.165	1.073

CCC(=O)CC + COC(=O)c1ccccc1
viscosity [mPa·s], 101 kPa
Settings	x2 = 0.0869	x2 = 0.176	x2 = 0.2669	x2 = 0.3636	x2 = 0.4616	x2 = 0.5586	x2 = 0.6631	x2 = 0.7718	x2 = 0.8792
303.15 K	0.486	0.557	0.634	0.722	0.822	0.932	1.07	1.235	1.422
313.15 K	0.43	0.485	0.548	0.619	0.7	0.79	0.896	1.025	1.169

OCc1ccccc1 + Cc1ccccc1
viscosity [mPa·s]
Settings	293.15 K	303.15 K	313.15 K	323.15 K
100 kPa, x1 = 0.1006	0.699	–	–	–
100 kPa, x1 = 0.1997	0.851	–	–	–
100 kPa, x1 = 0.3007	1.051	–	–	–
100 kPa, x1 = 0.402	1.329	–	–	–
100 kPa, x1 = 0.502	1.717	–	–	–
100 kPa, x1 = 0.6	2.158	–	–	–
100 kPa, x1 = 0.6925	2.764	–	–	–
100 kPa, x1 = 0.7994	3.659	–	–	–
100 kPa, x1 = 0.8995	4.821	–	–	–
101 kPa, x2 = 0.0973	–	3.563	2.793	2.117
101 kPa, x2 = 0.1952	–	2.788	2.237	1.73
101 kPa, x2 = 0.2937	–	2.226	1.781	1.403
101 kPa, x2 = 0.3927	–	1.758	1.44	1.157
101 kPa, x2 = 0.4924	–	1.386	1.15	0.9401
101 kPa, x2 = 0.5927	–	1.107	0.9561	0.7918
101 kPa, x2 = 0.6936	–	0.8989	0.7776	0.6576
101 kPa, x2 = 0.7951	–	0.7359	0.6508	0.5456
101 kPa, x2 = 0.8972	–	0.6154	0.5511	0.4771
